Laboratory results as given in PubChem BioAssay AID328 (DTP/NCI, 2004).
Values joined by “and” are separate entries in the source; they are usually repeats but may differ in a detail not shown here. Equal entries are not always repeated. Toxic doses and inconclusive results are not listed.

Tested on: BDF1 mice, P388 leukemia ip, median survival T/C
Assay: NCI In Vivo Anticancer Drug Screen. Data for tumor model P388 Leukemia (intraperitoneal) in B6D2F1 (BDF1) mice
Settings: endpoint: median survival time, higher = longer survival
Outline: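 Vehicle-dosed animals serve as the reference; survival of compound-dosed, tumour-implanted mice is divided by it.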

COc1cc2cc3c4cc(OC)c(OC)cc4cc[n+]3c(C)c2cc1OC
T/C (dose: 8.0 mg/kg/injection, schedule: Q03HX024 (ip), vehicle: saline): 150 % of control
T/C (dose: 12.5 mg/kg/injection, schedule: Q01DX009 (ip), vehicle: Klucel (hydroxypropylcellulose) (HPC)): 105 % of control
T/C (dose: 12.5 mg/kg/injection, schedule: Q01DX009 (ip), vehicle: saline): 165 % of control
T/C (dose: 12.5 mg/kg/injection, schedule: Q01DX009 (ip), vehicle: water): 195 % of control
T/C (dose: 25.0 mg/kg/injection, schedule: Q01DX009 (ip), vehicle: water): 195 % of control
T/C (dose: 25.0 mg/kg/injection, schedule: Q04DX003 (ip), vehicle: water): 170 % of control
T/C (dose: 32.0 mg/kg/injection, schedule: Q03HX008 (ip), vehicle: saline): 154 % of control
T/C (dose: 32.0 mg/kg/injection, schedule: Q03HX024 (ip), vehicle: saline): 168 % of control
T/C (dose: 37.5 mg/kg/injection, schedule: Q01DX001 (ip), vehicle: saline): 154 % of control
T/C (dose: 37.5 mg/kg/injection, schedule: Q01DX009 (ip), vehicle: saline): 162 % of control
T/C (dose: 50.0 mg/kg/injection, schedule: Q01DX009 (ip), vehicle: saline): 172 % of control and 181 % of control and 184 % of control
T/C (dose: 50.0 mg/kg/injection, schedule: Q01DX009 (ip), vehicle: water): 190 % of control
T/C (dose: 50.0 mg/kg/injection, schedule: Q04DX003 (ip), vehicle: water): 190 % of control
T/C (dose: 64.0 mg/kg/injection, schedule: Q01DX009 (ip), vehicle: saline): 159 % of control
T/C (dose: 64.0 mg/kg/injection, schedule: Q01DX009 (sc), vehicle: saline): 100 % of control
T/C (dose: 64.0 mg/kg/injection, schedule: Q03HX024 (ip), vehicle: saline): 163 % of control
T/C (dose: 75.0 mg/kg/injection, schedule: Q01DX001 (ip), vehicle: saline): 158 % of control
T/C (dose: 75.0 mg/kg/injection, schedule: Q01DX009 (ip), vehicle: saline): 183 % of control
T/C (dose: 75.0 mg/kg/injection, schedule: Q04DX003 (ip), vehicle: saline): 150 % of control
T/C (dose: 100.0 mg/kg/injection, schedule: Q01DX001 (ip), vehicle: water): 195 % of control
T/C (dose: 100.0 mg/kg/injection, schedule: Q01DX009 (ip), vehicle: Klucel (hydroxypropylcellulose) (HPC)): 170 % of control
T/C (dose: 100.0 mg/kg/injection, schedule: Q01DX009 (ip), vehicle: saline with Tween-80): 159 % of control and 177 % of control and 195 % of control
T/C (dose: 100.0 mg/kg/injection, schedule: Q01DX009 (ip), vehicle: saline): 172 % of control and 195 % of control
T/C (dose: 100.0 mg/kg/injection, schedule: Q01DX009 (ip), vehicle: water): 210 % of control
T/C (dose: 100.0 mg/kg/injection, schedule: Q04DX002 (ip), vehicle: saline): 163 % of control
T/C (dose: 100.0 mg/kg/injection, schedule: Q04DX003 (ip), vehicle: saline): 153 % of control
T/C (dose: 100.0 mg/kg/injection, schedule: Q04DX003 (ip), vehicle: water): 190 % of control
T/C (dose: 128.0 mg/kg/injection, schedule: Q01DX009 (ip), vehicle: saline): 163 % of control
T/C (dose: 128.0 mg/kg/injection, schedule: Q01DX009 (sc), vehicle: saline): 100 % of control
T/C (dose: 128.0 mg/kg/injection, schedule: Q03HX008 (ip), vehicle: saline): 154 % of control
T/C (dose: 128.0 mg/kg/injection, schedule: Q03HX024 (ip), vehicle: saline): 181 % of control
T/C (dose: 150.0 mg/kg/injection, schedule: Q01DX001 (ip), vehicle: saline): 162 % of control
T/C (dose: 150.0 mg/kg/injection, schedule: Q01DX009 (ip), vehicle: saline): 195 % of control
T/C (dose: 150.0 mg/kg/injection, schedule: Q04DX003 (ip), vehicle: saline): 162 % of control
T/C (dose: 200.0 mg/kg/injection, schedule: Q01DX001 (ip), vehicle: water): 185 % of control
T/C (dose: 200.0 mg/kg/injection, schedule: Q01DX009 (ip), vehicle: saline with Tween-80): 86 % of control and 181 % of control and 218 % of control
T/C (dose: 200.0 mg/kg/injection, schedule: Q01DX009 (ip), vehicle: saline): 172 % of control and 196 % of control and 204 % of control
T/C (dose: 200.0 mg/kg/injection, schedule: Q01DX009 (ip), vehicle: water): 165 % of control
T/C (dose: 200.0 mg/kg/injection, schedule: Q04DX002 (ip), vehicle: saline): 157 % of control
T/C (dose: 200.0 mg/kg/injection, schedule: Q04DX003 (ip), vehicle: saline): 169 % of control and 204 % of control
T/C (dose: 200.0 mg/kg/injection, schedule: Q04DX003 (ip), vehicle: water): 205 % of control
T/C (dose: 256.0 mg/kg/injection, schedule: Q01DX009 (sc), vehicle: saline): 100 % of control
T/C (dose: 256.0 mg/kg/injection, schedule: Q03HX024 (ip), vehicle: saline): 122 % of control
T/C (dose: 256.0 mg/kg/injection, schedule: Q08DX002 (ip), vehicle: saline): 154 % of control
T/C (dose: 300.0 mg/kg/injection, schedule: Q01DX001 (ip), vehicle: saline): 158 % of control
T/C (dose: 300.0 mg/kg/injection, schedule: Q01DX009 (ip), vehicle: saline): 216 % of control
T/C (dose: 300.0 mg/kg/injection, schedule: Q04DX003 (ip), vehicle: saline): 170 % of control
T/C (dose: 400.0 mg/kg/injection, schedule: Q01DX001 (ip), vehicle: water): 170 % of control
T/C (dose: 400.0 mg/kg/injection, schedule: Q01DX009 (ip), vehicle: saline with Tween-80): 181 % of control
T/C (dose: 400.0 mg/kg/injection, schedule: Q01DX009 (ip), vehicle: saline): 90 % of control
T/C (dose: 400.0 mg/kg/injection, schedule: Q04DX002 (ip), vehicle: saline): 163 % of control and 191 % of control
T/C (dose: 400.0 mg/kg/injection, schedule: Q04DX003 (ip), vehicle: saline): 180 % of control and 190 % of control
T/C (dose: 400.0 mg/kg/injection, schedule: Q04DX003 (ip), vehicle: water): 240 % of control
T/C (dose: 512.0 mg/kg/injection, schedule: Q01DX001 (ip), vehicle: saline): 163 % of control
T/C (dose: 512.0 mg/kg/injection, schedule: Q01DX009 (sc), vehicle: saline): 109 % of control
T/C (dose: 512.0 mg/kg/injection, schedule: Q08DX002 (ip), vehicle: saline): 159 % of control
T/C (dose: 600.0 mg/kg/injection, schedule: Q01DX001 (ip), vehicle: saline): 200 % of control
T/C (dose: 600.0 mg/kg/injection, schedule: Q01DX009 (ip), vehicle: saline): 116 % of control
T/C (dose: 600.0 mg/kg/injection, schedule: Q04DX003 (ip), vehicle: saline): 170 % of control
T/C (dose: 800.0 mg/kg/injection, schedule: Q04DX003 (ip), vehicle: saline): 181 % of control
T/C (dose: 1024.0 mg/kg/injection, schedule: Q01DX001 (ip), vehicle: saline): 109 % of control
T/C (dose: 1024.0 mg/kg/injection, schedule: Q01DX009 (sc), vehicle: saline): 100 % of control
T/C (dose: 1024.0 mg/kg/injection, schedule: Q08DX002 (ip), vehicle: saline): 177 % of control
T/C (dose: 2048.0 mg/kg/injection, schedule: Q01DX009 (sc), vehicle: saline): 100 % of control
T/C (dose: 2048.0 mg/kg/injection, schedule: Q04DX003 (ip), vehicle: saline): 109 % of control
